{
  "source": "paper PMC7894038",
  "about": "(Antiviral research, 2020)",
  "molecular_target": "eNP-CTD (Ebola virus nucleoprotein C-terminal domain, residues 641-739) (Zaire ebolavirus, UniProt P18272)",
  "sequence (P18272 641-739 limits assumed)": "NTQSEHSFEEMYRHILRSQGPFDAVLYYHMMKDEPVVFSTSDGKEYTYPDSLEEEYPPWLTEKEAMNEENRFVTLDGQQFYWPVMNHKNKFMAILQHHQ",
  "assay": "biochemical",
  "format": "binding",
  "note": "Like-named read-outs stand apart in the source and are kept apart here.",
  "data": [
    {"smiles": "CNCC1CCN(Cc2cccnc2)CC1", "note": "[CC69846, N-methyl-[1-(pyrid-3-ylmethyl)piperid-4-yl]methylamine]", "values": [
      {"measurement": "Site 1 ligand efficiency", "value": "1.6 ± 0.2 (0.24)"},
      {"measurement": "Site 3 ligand efficiency", "value": "1.9 ± 0.3 (0.24)"},
      {"measurement": "Site 4 ligand efficiency", "value": "4.9 ± 1.8 (0.20)"},
      {"measurement": "Kd", "setting": "Site 1 Kd ± Std. Error", "value": 1600, "unit": "µM"},
      {"measurement": "Kd", "setting": "Site 3 Kd ± Std. Error", "value": "> 1630", "unit": "µM"},
      {"measurement": "Kd", "setting": "Site 4 Kd ± Std. Error", "value": "> 1630", "unit": "µM"},
      {"measurement": "Site 2 Kd ± Std. Error", "setting": "pH 7", "value": "did not bind"},
      {"measurement": "Site 4 Kd ± Std. Error", "setting": "pH 7", "value": "lower affinity"},
      {"measurement": "Kd", "setting": "read-out: Site 2 Kd ± Std. Error, pH 7", "value": "> 7000", "unit": "µM"}
    ]}
  ]
}
